Source: patent US10722514B2 (FLX Bio, Inc., priority 2017, dated 2020)

Target: T1, recombinant full-length USP7 (Homo sapiens, UniProt Q93009)
T1 construct: A 25 μl reaction volume containing recombinant full-length USP7 (62 pM)
Experiment: USP7-mediated ubiquitin-rhodamine cleavage assay
Assay type: biochemical
Settings: recombinant full-length USP7 62 pM; ubiquitin-rhodamine 100 nM; 30-minute incubation with compound, 1 hour reaction at room temperature; read-out: Potency: USP7 IC50
Method in brief: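 Rhodamine fluorescence read-out after acetic acid stop; IC50 by 4-parameter nonlinear regression. Enzyme at 62 pM, substrate ubiquitin-rhodamine 100 nM final, 1 h at room temperature in the dark, after 30 min compound preincubation. Buffer: HEPES pH 7.3, NaCl, TCEP, BSA; 1% DMSO.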

T1 sequence (Q93009 whole entry): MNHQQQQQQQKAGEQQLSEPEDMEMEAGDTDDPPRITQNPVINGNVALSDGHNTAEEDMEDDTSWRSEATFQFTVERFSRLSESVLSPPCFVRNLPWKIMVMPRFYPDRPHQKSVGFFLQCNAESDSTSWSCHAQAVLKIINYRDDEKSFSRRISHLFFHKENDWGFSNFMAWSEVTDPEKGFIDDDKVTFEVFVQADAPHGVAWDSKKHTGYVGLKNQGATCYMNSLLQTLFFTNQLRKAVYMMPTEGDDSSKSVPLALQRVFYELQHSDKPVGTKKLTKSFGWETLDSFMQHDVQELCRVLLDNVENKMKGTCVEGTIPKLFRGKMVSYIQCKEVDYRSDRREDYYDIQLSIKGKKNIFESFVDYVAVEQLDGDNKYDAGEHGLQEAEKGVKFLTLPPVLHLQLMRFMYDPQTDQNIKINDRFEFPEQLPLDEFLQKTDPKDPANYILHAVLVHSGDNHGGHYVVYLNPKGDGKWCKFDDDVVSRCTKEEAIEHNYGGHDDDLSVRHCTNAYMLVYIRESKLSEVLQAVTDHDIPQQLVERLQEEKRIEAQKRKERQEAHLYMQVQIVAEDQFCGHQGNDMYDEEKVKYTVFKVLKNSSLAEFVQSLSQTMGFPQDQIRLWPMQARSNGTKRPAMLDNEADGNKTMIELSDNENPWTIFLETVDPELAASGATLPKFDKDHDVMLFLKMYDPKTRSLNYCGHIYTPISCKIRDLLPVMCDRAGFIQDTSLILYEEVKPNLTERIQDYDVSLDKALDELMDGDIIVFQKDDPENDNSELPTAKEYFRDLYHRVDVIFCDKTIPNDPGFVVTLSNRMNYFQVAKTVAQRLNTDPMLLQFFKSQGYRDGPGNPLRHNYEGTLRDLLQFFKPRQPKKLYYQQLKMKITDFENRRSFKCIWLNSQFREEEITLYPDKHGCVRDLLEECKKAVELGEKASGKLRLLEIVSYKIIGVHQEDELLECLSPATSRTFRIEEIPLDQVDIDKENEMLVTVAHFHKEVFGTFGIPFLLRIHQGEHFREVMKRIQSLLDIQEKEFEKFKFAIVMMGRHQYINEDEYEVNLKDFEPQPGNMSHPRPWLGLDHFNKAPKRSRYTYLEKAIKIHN

Row | IC50 | Structure (SMILES)
1 | < 1000 nM | Cc1cc(Cl)cc(-c2ncnc3cc(CN4C(=O)C5C(C4=O)C5(C)C)sc23)c1OC1CNCC1(C)C (centres unmarked) [Example 371, 3-[[4-[5-chloro-2-(4,4-dimethylpyrrolidin-3-yl)oxy-3-methyl-phenyl]thieno[3,2-d]pyrimidin-6-yl]methyl]-6,6-dimethyl-3-azabicyclo[3.1.0]hexane-2,4-dione]
2 | < 1000 nM | O=C(O)C(F)(F)F.[2H]C1([2H])C(=O)N(Cc2cc3nccc(-c4cc(Cl)cc(C)c4O[C@@H]4CNC[C@@H]4F)c3s2)C(=O)C1([2H])[2H] [Example 384, 1-[[7-[5-chloro-2-[(3R,4S)-4-fluoropyrrolidin-3-yl]oxy-3-methyl-phenyl]thieno[3,2-b]pyridin-2-yl]methyl]-3,3,4,4-tetradeuterio-pyrrolidine-2,5-dione; 2,2,2-trifluoroacetic acid]
3 | 1000 to 10000 nM | CC(=O)NCc1cc2nccc(-c3cc(Cl)cc(C)c3O[C@H]3CCCNC3)c2s1 [Example 263, (S)—N-((7-(5-Chloro-3-methyl-2-(piperidin-3-yloxy)phenyl)thieno[3,2-b]pyridin-2-yl)methyl)acetamide]
4 | 10000 to 30000 nM | Cc1cc(C)c(O[C@H]2CCCNC2)c(-c2ccnc3cc(CO)sc23)c1 [Example 248, (S)-(7-(3,5-Dimethyl-2-(piperidin-3-yloxy)phenyl)thieno[3,2-b]pyridin-2-yl)methanol]
5 | < 1000 nM | Cc1cc(Cl)cc(-c2ccnc3cc(CN4C(=O)CCC4=O)sc23)c1O[C@H]1CCCNCC1 [Example 269, (S)-1-((7-(2-(Azepan-4-yloxy)-5-chloro-3-methylphenyl)thieno[3,2-b]pyridin-2-yl)methyl)pyrrolidine-2,5-dione]

More lines, now with the values behind:

Row | Structure (SMILES) | IC50
6 | Cc1cc(Cl)cc(-c2ccnc3cc(CN4C(=O)CCC4=O)sc23)c1O[C@H]1C[C@H]2CC[C@@H](C1)N2 [Example 214, 1-((7-(2-(((1R,3r,5S)-8-Azabicyclo[3.2.1]octan-3-yl)oxy)-5-chloro-3-methylphenyl)thieno[3,2-b]pyridin-2-yl)methyl)pyrrolidine-2,5-dione] | < 1000 nM
7 | Cc1cc(Cl)cc(-c2ccnc3cc(CN4C(=O)CCC4=O)sc23)c1O[C@@H]1CNC[C@@H]1CO [Example 98, 1-((7-(5-Chloro-2-(((3S,4R)-4-(hydroxymethyl)pyrrolidin-3-yl)oxy)-3-methylphenyl)thieno[3,2-b]pyridin-2-yl)methyl)pyrrolidine-2,5-dione] | < 1000 nM
8 | Cc1cc2nccc(-c3cc(Cl)cc(C)c3OCC3CNC3)c2s1 [Example 37, 7-(2-(Azetidin-3-ylmethoxy)-5-chloro-3-methylphenyl)-2-methylthieno[3,2-b]pyridine] | 1000 to 10000 nM
9 | Cc1cc(Cl)cc(-c2ccnc3cc(CN4C(=O)CCC4=O)sc23)c1O[C@@H]1CNC[C@@H]1C(F)F [Example 111, 1-((7-(5-Chloro-2-(((3S,4S)-4-(difluoromethyl)pyrrolidin-3-yl)oxy)-3-methylphenyl)thieno[3,2-b]pyridin-2-yl)methyl)pyrrolidine-2,5-dione] | < 1000 nM
10 | Cc1cc(Cl)cc(-c2ccnc3cc(CN4C(=O)CCC4=O)sc23)c1O[C@H]1CCNC[C@@H]1C [Example 223, 1-((7-(5-Chloro-3-methyl-2-(((3S,4S)-3-methylpiperidin-4-yl)oxy)phenyl)thieno[3,2-b]pyridin-2-yl)methyl)pyrrolidine-2,5-dione] | < 1000 nM
11 | Cc1cc(C(F)(F)F)cc(-c2ccnc3cc(Cn4c(=O)[nH]cc(F)c4=O)sc23)c1O[C@@H]1CNC[C@@H]1F [Example 136, 5-Fluoro-3-((7-(2-(((3R,4S)-4-fluoropyrrolidin-3-yl)oxy)-3-methyl-5-(trifluoromethyl)phenyl)thieno[3,2-b]pyridin-2-yl)methyl)pyrimidine-2,4(1H,3H)-dione] | < 1000 nM
12 | Cc1cc(Cl)cc(-c2ccnc3cc(CN4C(=O)CN(C)C4=O)sc23)c1OCC1(C)CNC1 [Example 25, 3-((7-(5-Chloro-3-methyl-2-((3-methylazetidin-3-yl)methoxy)phenyl)thieno[3,2-b]pyridin-2-yl)methyl)-1-methylimidazolidine-2,4-dione] | < 1000 nM

Same assay, conditions: recombinant full-length USP7 62 pM; ubiquitin-rhodamine 100 nM; 30-minute incubation, 1 hour reaction at room temperature; read-out: Potency (USP7 IC50)

Row | Structure (SMILES) | IC50
13 | Cc1cc(Cl)cc(-c2ccnc3cc(Cn4c(=O)ccn(CC(F)(F)F)c4=O)sc23)c1OC1CC(N2CC(O)C2)C1 (centres unmarked) [Example 700, 3-[[7-[5-chloro-2-[3-(3-hydroxyazetidin-1-yl)cyclobutoxy]-3-methyl-phenyl]thieno[3,2-b]pyridin-2-yl]methyl]-1-(2,2,2-trifluoroethyl)pyrimidine-2,4-dione; 2,2,2-trifluoroacetic acid] | < 1000 nM
14 | Cc1cc(Cl)cc(-c2ccnc3cc(Cn4c(=O)ccn(CC(F)(F)F)c4=O)sc23)c1OC1CCC(F)(F)CC1 [Example 682, 3-[[7-[5-chloro-2-(4,4-difluorocycllohexoxy)-3-methyl-phenyl]thieno[3,2-b]pyridin-2-yl]methyl]-1-(2,2,2-trifluoroethyl)pyrimidine-2,4-dione] | < 1000 nM

Same assay, conditions: recombinant full-length USP7 62 pM; ubiquitin-rhodamine 100 nM; 30-minute pre-incubation, 1 hour reaction at room temperature; read-out: Potency (USP7 IC50)

Row | IC50 | Structure (SMILES)
15 | < 1000 nM | Cc1cc(Cl)cc(-c2ccnc3cc(Cn4c(=O)ccn(CC(F)(F)F)c4=O)sc23)c1O[C@@H]1CN[C@@H]1C [Example 591, 3-[[7-[5-chloro-3-methyl-2-[(2R,3R)-2-methylazetidin-3-yl]oxy-phenyl]thieno[3,2-b]pyridin-2-yl]methyl]-1-(2,2,2-trifluoroethyl)pyrimidine-2,4-dione]
16 | < 1000 nM | Cc1cc(Cl)cc(-c2ncnc3cc(Cn4c(=O)ccn(CC(F)(F)F)c4=O)sc23)c1O[C@H]1CCCNCC1 [Example 580, 3-[[4-[2-[(4S)-azepan-4-yl]oxy-5-chloro-3-methyl-phenyl]thieno[3,2-d]pyrimidin-6-yl]methyl]-1-(2,2,2-trifluoroethyl)pyrimidine-2,4-dione; 2,2,2-trifluoroacetic acid]
17 | < 1000 nM | Cc1cc(Cl)cc(-c2ccnc3cc(Cn4c(=O)ccn(C)c4=O)sc23)c1O[C@@H]1C[C@@H]2COCCN2C1 [Example 502, 3-[[7-[2-[[(7R,8aR)-3,4,6,7,8,8a-hexahydro-1H-pyrrolo[2,1-c][1,4]oxazin-7-yl]oxy]-5-chloro-3-methyl-phenyl]thieno[3,2-b]pyridin-2-yl]methyl]-1-methyl-pyrimidine-2,4-dione]
18 | < 1000 nM | Cc1cc(Cl)cc(-c2ccnc3cc(CN4C(=O)CCC4=O)sc23)c1OC1CNCc2ccccc21 (centres unmarked) [Example 429, 1-[[7-[5-chloro-3-methyl-2-(1,2,3,4-tetrahydroisoquinolin-4-yloxy)phenyl]thieno[3,2-b]pyridin-2-yl]methyl]pyrrolidine-2,5-dione]
19 | < 1000 nM | Cc1cc(Cl)cc(-c2ncnc3cc(Cn4c(=O)ccn(CC(F)(F)F)c4=O)sc23)c1O[C@H]1CNC[C@@H]1C [Example 578, 3-[[4-[5-chloro-3-methyl-2-[(3R,4S)-4-methylpyrrolidin-3-yl]oxy-phenyl]thieno[3,2-d]pyrimidin-6-yl]methyl]-1-(2,2,2-trifluoroethyl)pyrimidine-2,4-dione]

Row | Structure (SMILES) | IC50
20 | Cc1cc(Cl)cc(-c2ccnc3cc(Cn4c(=O)ccn(CC(F)(F)F)c4=O)sc23)c1O[C@H]1CC[C@](C)(N)C1 [Example 597, 3-[[7-[2-[(1S,3S)-3-amino-3-methyl-cyclopentoxy]-5-chloro-3-methyl-phenyl]thieno[3,2-b]pyridin-2-yl]methyl]-1-(2,2,2-trifluoroethyl)pyrimidine-2,4-dione; 2,2,2-trifluoroacetic acid] | < 1000 nM
